One data set deals with matrix vesicles (MV). The experiment in a line: Mineralization of matrix vesicles (MV) incubated in synthetic cartilage lymph (SCL), microplate-based biomineralization assay. Type of data set: biochemical, chicken. The method, then: Zn^2+ causes Anx-5 to bind to acidic phospholipids with even higher affinity than does Ca^2+; however, its effect is very different.
(§1) Mineral formation was measured by incubating MVs (40 μg protein/ml) or complex (60 μg/ml) in synthetic cartilage lymph and assayed by a microplate-based biomineralization modeling system and assay as described herein. MVs were isolated from chicken GP cartilage. The PS.Ca.Pi complex was synthesized from emulsions of PS prepared by sonication in a synthetic intracellular phosphate buffer. Where indicated, pure native placental human annexin 5 (Anx-H5) was added.
(§2) Incubation was in pH 7.5 SCL at 37° C., which follows a characteristic sigmoid pattern in which a definable lag period precedes discernible mineral formation. There then follows a period of rapid mineral formation, a transient period when the rate declines, and an extended period at a progressively slower rate.

For a further data set, the target named is T1, Anx-A5 Ca^2+ channel (Gallus gallus, UniProt P17153).
T1 construct: from tissue; host or cells: avian cartilage
The experiment in a line: Ca^2+ channel currents of MV or purified Anx-A5 fused with planar PS.PE (1:1) bilayers. The format is biochemical, avian. The conditions noted are these: MV or purified Anx-A5 in planar PS.PE (1:1) bilayers. On the procedure:
To determine if the inhibitory effect of Zn^2+ on MV calcification was due to interaction with Anx-A5, experiments were conducted to investigate the nature of the MV Ca^2+ channel. […] When MVs or purified Anx-A5 were fused with planar PS.PE (1:1) bilayers, a multiconductance Ca^2+ channel was evident, as shown in FIG. 6A. […] The finding that Anx-A5 Ca^2+ channel gating is modulated by Zn^2+ raised the possibility that it may be an important regulator of MV Ca^2+ channel activity in vivo. Thus, it was desirable to determine how Anx-5 helps promote MV mineralization and how Zn^2+ affects the structure of Anx-A5.

For a further data set, the target named is T2, Anx-H5-containing ACP (Homo sapiens, UniProt P08758).
T2 sequence (P08758 2-320 limits assumed): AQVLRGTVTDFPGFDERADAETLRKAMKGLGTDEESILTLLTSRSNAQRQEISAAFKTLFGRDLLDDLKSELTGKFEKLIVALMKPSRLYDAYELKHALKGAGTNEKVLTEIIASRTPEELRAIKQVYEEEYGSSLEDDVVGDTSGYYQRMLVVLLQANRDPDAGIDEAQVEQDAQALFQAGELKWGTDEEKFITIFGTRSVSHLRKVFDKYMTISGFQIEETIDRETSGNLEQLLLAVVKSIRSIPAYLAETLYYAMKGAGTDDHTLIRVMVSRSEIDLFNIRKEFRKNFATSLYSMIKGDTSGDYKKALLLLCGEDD
The experiment in a line: Mineral formation by Anx-H5-containing ACP in SCL. The format is biochemical. Particulars: low levels (5 μM) of Zn^2+ in SCL.

A further data set deals with ACP. Particulars: low levels of Zn^2+.
For a further data set, the system named is PS.Ca.Pi complex. The experiment in a line: Mineral formation by synthetic PS.Ca.Pi complex seeded into SCL, microplate-based biomineralization assay. The format is biochemical. On the procedure:
as §1, §2
Results are illustrated in FIGS. 9A and 9B. […] To document that the effect of avian Anx-A5 could be equally matched by human Anx-H5, the kinetics of mineral formation were examined when both avian MV and the Mg^2+-containing PS.Ca.Pi complex were seeded into SCL in the absence and presence of purified native human placental Anx H5. […]

In data set [1] the test system is PS.PE.Ca.Pi and PS.Ca.Pi complexes. The experiment in a line: Mineral formation by synthetic PS and PE containing Ca.Pi complexes in SCL. The format is biochemical. The method, then: FIG. 15 illustrates the effect of Anx-H5 on mineral formation by synthetic PS and PE containing Ca.Pi complexes as determined through in vitro modeling of the system. Mineralization was measured by incubating the various complexes as shown (about 50 μg/ml) in SCL using a microplate-based biomineralization assay system. The complexes were prepared as described above in Example 3. Emulsions of PS or PS.PE (1:1) were generated by sonication to generate approximately 60 nm vesicles. Anx-H5 was added before CaCl2 was titrated to form the complex.

Data set [2] addresses T3, Anx-H5.PS.Ca.Pi complexes (Homo sapiens, UniProt P08758).
T3 sequence (P08758 2-320 limits assumed): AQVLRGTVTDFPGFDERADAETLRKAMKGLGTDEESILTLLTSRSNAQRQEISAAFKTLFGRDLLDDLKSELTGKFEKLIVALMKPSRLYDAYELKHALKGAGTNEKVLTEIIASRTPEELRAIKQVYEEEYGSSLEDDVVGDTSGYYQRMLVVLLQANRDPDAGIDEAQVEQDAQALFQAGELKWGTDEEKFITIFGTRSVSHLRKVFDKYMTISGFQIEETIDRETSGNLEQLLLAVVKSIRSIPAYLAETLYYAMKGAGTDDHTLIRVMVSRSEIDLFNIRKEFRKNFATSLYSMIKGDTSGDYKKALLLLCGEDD
The experiment in a line: Kinetics of mineralization of Anx-H5 containing nucleators with or without phosphoserine. Type of data set: biochemical. The conditions noted are these: 100 μM phosphoserine; both Anx-H5-containing ACP and PS.Ca.Pi complexes. The source says:
Phosphoserine was examined as a test compound. Phosphoserine can occupy PS head-group binding sites in Anx-H5, acting as a competitive inhibitor of PS binding. […] Since Anx-H5 trimer formation occurs only on phospholipid bilayers, phosphoserine competes for PS binding sites in Anx-H5, interfering with trimer formation, and thereby inhibiting de novo mineralization.
FIG. 18 illustrates the results of in vitro assays showing the delay of onset of mineralization of Anx-H5 containing nucleators by incorporation of O-phospho-L-serine

Turning to `[Zn+2]` [Zn^2+, zinc], in the data set with matrix vesicles (MV) (low levels of Zn^2+ (5 μM) in SCL), the MV mineralization entry is listed as “completely inhibit”. The “Ca^2+ currents” value on Anx-A5 Ca^2+ channel is listed as “blocked”. For the same molecule, the “mineral formation by Anx-H5-containing ACP” value on Anx-H5-containing ACP is reported as “marked inhibition”. Moreover, the ACP-induced mineral formation result in the data set with ACP was “weak inhibition”.
For `c1cnc2c(c1)ccc1cccnc12` [1,10-phenanthroline, reference compound], the “ability of Zn^2+-inhibited MV to mineralize” value with matrix vesicles (MV) (metal ion chelator added to Zn^2+-inhibited MV) is “restored the ability to mineralize”.
“Anx-H5: pure native placental human annexin 5”: in the data set on matrix vesicles (MV) (Anx-H5 added to freshly isolated MV), the “ability of MV to induce and propagate mineral formation” value was “significantly enhanced”. In the data set on PS.Ca.Pi complex (Anx-H5 by itself added to SCL, without PS), the “mineral formation induced by protein alone” value was “failed to induce any mineral formation”. Further, the “effect on PS.PE.Ca.Pi-induced mineralization” value in data set [1] (Anx-H5 incorporated into PS.PE.Ca.Pi complex) is “overcome this inhibitory effect of PE”. For the same molecule, the “effect on mineral formation of incorporation into PS.Ca.Pi complex” value in data set [1] (complexes about 50 μg/ml in SCL) is “obvious stimulatory effect”.
As for “phosphatidylethanolamine [PE, reference compound]”, the “ability of PS.Ca.Pi to nucleate mineral formation” value in data set [1] (equimolar amounts incorporated into PS.Ca.Pi (PS.PE 1:1)) is “profound inhibition”.
Turning to `N[C@@H](COP(=O)(O)O)C(=O)O` [phosphoserine, O-phospho-L-serine], the “time needed for onset of mineralization” value in data set [2] was “almost tripling”.

B1: Anx-A5: avian annexin 5 (avian cartilage) (protein, UniProt P17153 1-321, looked up)
Annexin A5: MAKYTRGTVTAFSPFDARADAEALRKAMKGMGTDEETILKILTSRNNAQRQEIASAFKTLFGRDLVDDLKSELTGKFETLMVSLMRPARIFDAHALKHAIKGAGTNEKVLTEILASRTPAEVQNIKQVYMQEYEANLEDKITGETSGHFQRLLVVLLQANRDPDGRVDEALVEKDAQVLFRAGELKWGTDEETFITILGTRSVSHLRRVFDKYMTISGFQIEETIDRETSGDLEKLLLAVVKCIRSVPAYFAETLYYSMKGAGTDDDTLIRVMVSRSEIDLLDIRHEFRKNFAKSLYQMIQKDTSGDYRKALLLLCGGDDE
For the molecule B1, the “activation of PS.Ca.Pi complex” value with PS.Ca.Pi complex (complex prepared from Mg^2+-containing phosphate buffer) is on record as “synergistically activates”.

Source of the values: patent US20090124579A1, “Systems and Methods For Determination of Compounds for Stimulation or Inhibition of Neocalcification” (UNIVERSITY OF SOUTH CAROLINA, priority 2007, published 2009).
